Assay results: PubChem BioAssay (NCI)
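GI50: concentration for 50% inhibition of growth. At the TGI there is no net growth.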

Experiments:
Assay in all cases: NCI-60 cell line screen, 384-well format
786-0 renal = system: 786-0 renal
A498 renal = system: A498 renal
A549 NSCLC = system: A549 NSCLC
ACHN renal = system: ACHN renal
BT-549 breast = system: BT-549 breast
CAKI-1 renal = system: CAKI-1 renal
CCRF-CEM leukemia = system: CCRF-CEM leukemia
COLO 205 colon = system: COLO 205 colon
DU-145 prostate = system: DU-145 prostate
EKVX NSCLC = system: EKVX NSCLC
HCC-2998 colon = system: HCC-2998 colon
HCT-116 colon = system: HCT-116 colon
HCT-15 colon = system: HCT-15 colon
HL-60(TB) leukemia = system: HL-60(TB) leukemia
HOP-62 NSCLC = system: HOP-62 NSCLC
HOP-92 NSCLC = system: HOP-92 NSCLC
HT29 colon = system: HT29 colon
IGROV1 ovarian = system: IGROV1 ovarian
K-562 leukemia = system: K-562 leukemia
KM12 colon = system: KM12 colon
MALME-3M melanoma = system: MALME-3M melanoma
MCF7 breast = system: MCF7 breast
MDA-MB-231 breast = system: MDA-MB-231 breast
MDA-MB-435 melanoma = system: MDA-MB-435 melanoma
MDA-MB-468 breast = system: MDA-MB-468 breast
MOLT-4 leukemia = system: MOLT-4 leukemia
NCI-H226 lung = system: NCI-H226 lung
NCI-H23 lung = system: NCI-H23 lung
NCI-H322M lung = system: NCI-H322M lung
NCI-H460 NSCLC = system: NCI-H460 NSCLC
NCI-H522 lung = system: NCI-H522 lung
NCI/ADR-RES ovarian = system: NCI/ADR-RES ovarian
OVCAR-3 ovarian = system: OVCAR-3 ovarian
OVCAR-4 ovarian = system: OVCAR-4 ovarian
OVCAR-5 ovarian = system: OVCAR-5 ovarian
OVCAR-8 ovarian = system: OVCAR-8 ovarian
PC-3 prostate = system: PC-3 prostate
RPMI-8226 leukemia = system: RPMI-8226 leukemia
RXF 393 renal = system: RXF 393 renal
SF-268 CNS = system: SF-268 CNS
SF-295 CNS = system: SF-295 CNS
SF-539 CNS = system: SF-539 CNS
SK-MEL-28 melanoma = system: SK-MEL-28 melanoma
SK-MEL-5 melanoma = system: SK-MEL-5 melanoma
SK-OV-3 ovarian = system: SK-OV-3 ovarian
SN12C renal = system: SN12C renal
SNB-19 CNS = system: SNB-19 CNS
SNB-75 CNS = system: SNB-75 CNS
SR leukemia = system: SR leukemia
SW-620 colon = system: SW-620 colon
T-47D breast = system: T-47D breast
TK-10 renal = system: TK-10 renal
U251 glioblastoma = system: U251 glioblastoma
UACC-257 melanoma = system: UACC-257 melanoma
UACC-62 melanoma = system: UACC-62 melanoma
UO-31 renal = system: UO-31 renal

O=C(Cc1cccc(OC(F)(F)F)c1)Nc1ccc(CCCCc2nnc(NC(=O)Cc3ccccn3)s2)nn1
GI50 ([…]-0 renal): 0.0294 µM
TGI (786-0 renal): 0.248 µM
GI50 (A498 renal): 0.0303 µM
TGI (A498 renal): 0.16 µM
GI50 (A549 NSCLC): 0.0172 µM
TGI (A549 NSCLC): 0.061 µM
GI50 (ACHN renal): 2.52 µM
TGI (ACHN renal): > 71 µM
GI50 (BT-549 breast): 2.26 µM
TGI (BT-549 breast): 11.2 µM
GI50 (CAKI-1 renal): 0.193 µM
TGI (CAKI-1 renal): 18 µM
GI50 (CCRF-CEM leukemia): 0.375 µM
TGI (CCRF-CEM leukemia): > 100 µM
GI50 (COLO 205 colon): 36.2 µM
TGI (COLO 205 colon): > 100 µM
GI50 (DU-145 prostate): 31.4 µM
TGI (DU-145 prostate): > 100 µM
GI50 (EKVX NSCLC): 2.74 µM
TGI (EKVX NSCLC): > 100 µM
TGI (HCC-2998 colon): > 100 µM
GI50 (HCT-116 colon): 0.162 µM
TGI (HCT-116 colon): > 33.4 µM
GI50 (HCT-15 colon): > 72.6 µM
TGI (HCT-15 colon): > 100 µM
GI50 (HL-60(TB) leukemia): 0.687 µM
TGI (HL-60(TB) leukemia): > 100 µM
GI50 (HOP-62 NSCLC): 0.0537 µM
TGI (HOP-62 NSCLC): 0.335 µM
GI50 (HOP-92 NSCLC): 6.95 µM
TGI (HOP-92 NSCLC): 32.4 µM
GI50 (HT29 colon): > 100 µM
TGI (HT29 colon): > 100 µM
GI50 (IGROV1 ovarian): > 31.6 µM
TGI (IGROV1 ovarian): > 31.6 µM
GI50 (K-562 leukemia): 8.95 µM
TGI (K-562 leukemia): > 100 µM
GI50 (KM12 colon): 0.068 µM
TGI (KM12 colon): > 100 µM
GI50 (MALME-3M melanoma): 23.1 µM
TGI (MALME-3M melanoma): > 56.7 µM
GI50 (MCF7 breast): 6.1 µM
TGI (MCF7 breast): > 100 µM
GI50 (MDA-MB-231 breast): 0.0339 µM
TGI (MDA-MB-231 breast): 18.8 µM
GI50 (MDA-MB-435 melanoma): > 100 µM
TGI (MDA-MB-435 melanoma): > 100 µM
GI50 (MDA-MB-468 breast): 8.47 µM
TGI (MDA-MB-468 breast): 93.3 µM
GI50 (MOLT-4 leukemia): 2.04 µM
TGI (MOLT-4 leukemia): > 100 µM
GI50 (NCI-H226 lung): 0.282 µM
TGI (NCI-H226 lung): 0.983 µM
GI50 (NCI-H23 lung): 4.78 µM
TGI (NCI-H23 lung): 39.6 µM
GI50 (NCI-H322M lung): 0.0199 µM
TGI (NCI-H322M lung): 0.0551 µM
GI50 (NCI-H460 NSCLC): 0.165 µM
TGI (NCI-H460 NSCLC): 19.2 µM
GI50 (NCI-H522 lung): 0.075 µM
TGI (NCI-H522 lung): 4.05 µM
GI50 (NCI/ADR-RES ovarian): > 100 µM
TGI (NCI/ADR-RES ovarian): > 100 µM
GI50 (OVCAR-3 ovarian): > 21.4 µM
TGI (OVCAR-3 ovarian): > 100 µM
GI50 (OVCAR-4 ovarian): 9.65 µM
TGI (OVCAR-4 ovarian): > 31.1 µM
GI50 (OVCAR-5 ovarian): 0.362 µM
TGI (OVCAR-5 ovarian): > 100 µM
GI50 (OVCAR-8 ovarian): 1.22 µM
TGI (OVCAR-8 ovarian): 17.3 µM
GI50 (PC-3 prostate): > 100 µM
TGI (PC-3 prostate): > 100 µM
GI50 (RPMI-8226 leukemia): 0.0377 µM
TGI (RPMI-8226 leukemia): 0.175 µM
GI50 (RXF 393 renal): 0.0372 µM
TGI (RXF 393 renal): 0.141 µM
GI50 (SF-268 CNS): 0.201 µM
TGI (SF-268 CNS): 1.98 µM
GI50 (SF-295 CNS): 5.17 µM
TGI (SF-295 CNS): > 23.1 µM
GI50 (SF-539 CNS): 0.224 µM
TGI (SF-539 CNS): 14.4 µM
GI50 (SK-MEL-28 melanoma): 30.8 µM
TGI (SK-MEL-28 melanoma): > 87.1 µM
GI50 (SK-MEL-5 melanoma): 0.891 µM
TGI (SK-MEL-5 melanoma): 17.2 µM
GI50 (SK-OV-3 ovarian): 0.0809 µM
TGI (SK-OV-3 ovarian): 25.2 µM
GI50 (SN12C renal): 0.0217 µM
GI50 (SNB-19 CNS): 39.4 µM
TGI (SNB-19 CNS): 97.2 µM
GI50 (SNB-75 CNS): 18.5 µM
TGI (SNB-75 CNS): 55.9 µM
GI50 (SR leukemia): 0.439 µM
TGI (SR leukemia): 18.7 µM
GI50 (SW-620 colon): > 100 µM
TGI (SW-620 colon): > 100 µM
GI50 (T-47D breast): 1.87 µM
TGI (T-47D breast): 9.66 µM
GI50 (TK-10 renal): 0.637 µM
TGI (TK-10 renal): 18.3 µM
GI50 (U251 glioblastoma): 0.0338 µM
TGI (U251 glioblastoma): 11.8 µM
GI50 (UACC-257 melanoma): 14.4 µM
TGI (UACC-257 melanoma): 48 µM
GI50 (UACC-62 melanoma): 4.76 µM
TGI (UACC-62 melanoma): > 33.5 µM
GI50 (UO-31 renal): 5.66 µM
